From publication PMC6364417, “Kinase inhibitor library screening identifies synergistic drug combinations effective in sensitive and resistant melanoma cells” (Journal of Experimental & Clinical Cancer Research : CR, 2019)

Columns and labels:
Test in all cases: Kinase inhibitor library screening, PrestoBlue cell viability, 1 or 10 μM, 72 h
[1] = test system: 501Mel cells (parental); details: 501Mel Parental, 72 h, in %
In short: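 Kinase inhibitors added at two fixed concentrations; 72 h exposure; PrestoBlue readout; % viability vs untreated; n ≥ 2 per line.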

[2] = test system: 501Mel-GP cells (Dabrafenib-resistant); details: 501Mel GP, 72 h, in %
[3] = test system: 501Mel-XP cells (Vemurafenib-resistant); details: 501Mel XP, 72 h, in %
[4] = test system: A375 cells (parental); details: A375 Parental, 72 h
[5] = test system: A375-GP cells (Dabrafenib-resistant); details: A375 GP, 72 h
[6] = test system: A375-XP cells (Vemurafenib-resistant); details: A375 XP, 72 h
[7] = test system: IGR37 cells (parental); details: IGR37 Parental, 72 h, in %
[8] = test system: IGR37-GP cells (Dabrafenib-resistant); details: IGR37 GP, 72 h
[9] = test system: IGR37-XP cells (Vemurafenib-resistant); details: IGR37 XP, 72 h

Nc1nc(N)c2nc(-c3cccc(O)c3)cnc2n1 [TG 100713]
Cell viability in kinase inhibitor library screening, 501Mel Parental, 1μΜ ([1]; 1μΜ): 94.5
Cell viability in kinase inhibitor library screening, 501Mel Parental, 10μΜ ([1]; 10μΜ): 56.1
Cell viability in kinase inhibitor library screening, 501Mel GP, 1μΜ [2]: 98.4
Cell viability in kinase inhibitor library screening, 501Mel GP, 10μΜ ([2]; 10μΜ): 36.6
Cell viability in kinase inhibitor library screening, 501Mel XP, 1μΜ ([3]; 1μΜ): 90.7
Cell viability in kinase inhibitor library screening, 501Mel XP, 10μΜ ([3]; 10μΜ): 26.9
Cell viability in kinase inhibitor library screening, A375 Parental, 10μΜ ([4]; 10μΜ): 43.8
Cell viability in kinase inhibitor library screening, A375 Parental, 1μΜ ([4]; 1μΜ): 94.5
Cell viability in kinase inhibitor library screening, A375 GP, 1μΜ ([5]; 1μΜ): 94.1
Cell viability in kinase inhibitor library screening, A375 GP, 10μΜ ([5]; 10μΜ): 37.7
Cell viability in kinase inhibitor library screening, A375 XP, 1μΜ ([6]; 1μΜ): 93.7
Cell viability in kinase inhibitor library screening, A375 XP, 10μΜ ([6]; 10μΜ): 40.5
Cell viability in kinase inhibitor library screening, IGR37 Parental, 10μΜ ([7]; 10μΜ): 49.5
Cell viability in kinase inhibitor library screening, IGR37 GP, 10μΜ ([8]; 10μΜ): 58.8%
Cell viability in kinase inhibitor library screening, IGR37 GP, 1μΜ ([8]; 1μΜ, in %): 93.1
Cell viability in kinase inhibitor library screening, IGR37 XP, 10μΜ ([9]; 10μΜ): 21.2%
Cell viability in kinase inhibitor library screening, IGR37 XP, 1μΜ ([9]; 1μΜ, in %): 97.8

Cc1cc(C(C)Nc2ccccc2)c2nc(N3CCOCC3)cc(=O)n2c1 (stereo not shown) [TGX-221]
Cell viability in kinase inhibitor library screening, 501Mel Parental, 1μΜ ([1]; 1μΜ): 99.4
Cell viability in kinase inhibitor library screening, 501Mel Parental, 10μΜ ([1]; 10μΜ): 97.1
Cell viability in kinase inhibitor library screening, 501Mel GP, 1μΜ [2]: 102.9
Cell viability in kinase inhibitor library screening, 501Mel GP, 10μΜ ([2]; 10μΜ): 78.5
Cell viability in kinase inhibitor library screening, 501Mel XP, 1μΜ ([3]; 1μΜ): 92.5
Cell viability in kinase inhibitor library screening, 501Mel XP, 10μΜ ([3]; 10μΜ): 67.8
Cell viability in kinase inhibitor library screening, A375 Parental, 10μΜ ([4]; 10μΜ): 94.9
Cell viability in kinase inhibitor library screening, A375 Parental, 1μΜ ([4]; 1μΜ): 103.0
Cell viability in kinase inhibitor library screening, A375 GP, 1μΜ ([5]; 1μΜ): 95.9
Cell viability in kinase inhibitor library screening, A375 GP, 10μΜ ([5]; 10μΜ): 91.3
Cell viability in kinase inhibitor library screening, A375 XP, 1μΜ ([6]; 1μΜ): 107.8
Cell viability in kinase inhibitor library screening, A375 XP, 10μΜ ([6]; 10μΜ): 99.8
Cell viability in kinase inhibitor library screening, IGR37 Parental, 1μΜ ([7]; 1μΜ): 97.4
Cell viability in kinase inhibitor library screening, IGR37 Parental, 10μΜ ([7]; 10μΜ): 96.6
Cell viability in kinase inhibitor library screening, IGR37 GP, 10μΜ ([8]; 10μΜ): 85.9%
Cell viability in kinase inhibitor library screening, IGR37 GP, 1μΜ ([8]; 1μΜ, in %): 93.0
Cell viability in kinase inhibitor library screening, IGR37 XP, 10μΜ ([9]; 10μΜ): 61.6%
Cell viability in kinase inhibitor library screening, IGR37 XP, 1μΜ ([9]; 1μΜ, in %): 95.0

Nc1cccc(-c2cc3c(Oc4cccc(O)c4)ncnc3[nH]2)c1 [TWS119]
cell viability, 501Mel Parental, 1μΜ ([1]; 1μΜ): 90.4
cell viability, 501Mel Parental, 10μΜ ([1]; 10μΜ): 35.3
cell viability, 501Mel GP, 10μΜ ([2]; 10μΜ): 40.8
cell viability, 501Mel XP, 1μΜ ([3]; 1μΜ): 95.3
cell viability, 501Mel XP, 10μΜ ([3]; 10μΜ): 26.6
cell viability, A375 Parental, 1μΜ ([4]; 1μΜ, in %): 93.6
cell viability, A375 Parental, 10μΜ ([4]; 10μΜ, in %): 29.8
cell viability, A375 GP, 1μΜ ([5]; 1μΜ, in %): 97.7
cell viability, A375 GP, 10μΜ ([5]; 10μΜ, in %): 41.9
cell viability, A375 XP, 1μΜ ([6]; 1μΜ, in %): 96.8
cell viability, A375 XP, 10μΜ ([6]; 10μΜ, in %): 67.4
cell viability, IGR37 Parental, 1μΜ ([7]; 1μΜ): 100.4
cell viability, IGR37 Parental, 10μΜ ([7]; 10μΜ): 65.2
cell viability, IGR37 GP, 10μΜ ([8]; 10μΜ): 61.4%
cell viability, IGR37 GP, 1μΜ ([8]; 1μΜ, in %): 96.5
cell viability, IGR37 XP, 10μΜ ([9]; 10μΜ): 33.3%
cell viability, IGR37 XP, 1μΜ ([9]; 1μΜ, in %): 80.5
